Measured values: publication PMC5562305, “Impact of novel palmitoylated prolactin-releasing peptide analogs on metabolic changes in mice with diet-induced obesity” (PLoS ONE, 2017)
Starred links: 1 amine or outer side, 2 acyl side, 3 side chain; linkers in the order of their positions; H or OH if unused. Residues, ends and D or L forms follow the SMILES beside them. Groups on a side chain read outwards from the residue. *: point of attachment. γGlu = O=C(O)[C@H](CCC(=O)[*:2])N[*:1]; Palmitoyl = CCCCCCCCCCCCCCCC(=O)*

System: urinary metabolites
Test: NMR-based metabolomics of urine of DIO mice
Format: in vivo, C57BL/6 mice
Set-up: key to DMA, Mean / DMG, Mean / MA, Mean / TMA, Mean / acetate, Mean / allantoin, Mean / carnitine, Mean / choline, Mean / cis-aconitate, Mean / creatine+creatinine, Mean / creatine, Mean / creatinine, Mean / ethanolamine, Mean / formate, Mean / galactose, Mean / glucose, Mean / glycine, Mean / lactate, Mean / succinate, Mean / vinylacetylglycine, Mean: TSA-normalized intensity of the metabolite's representative NMR signal
Conditions: urine NMR signal, DIO mice
Procedure: Urine samples for NMR-based metabolomics were collected prior to the start of the interventions and at the end of the experiment. For overnight urine collection (from 5 pm to 8 am), the mice were housed in individual metabolic cages (Tecniplast, Buguggiate, Italy) without access to food. Samples were collected with the addition of NaN3 and stored at -80°C until NMR analysis.
The urine samples were thawed at room temperature and centrifuged at 13 684 x g for 5 min prior to the NMR experiments. A 200-μl aliquot of supernatant was diluted with 340 μl of H2O mixed with 60 μl of phosphate buffer (1.5 M KH2PO4 in D2O containing 2 mM NaN3 and 0.1% trimethylsilyl propionic acid (TSP), pH 7.4) and transferred to a 5-mm NMR tube. The NMR data were acquired with a 600 MHz Bruker Avance III spectrometer (Bruker BioSpin, Rheinstetten, Germany) equipped with a 5-mm TCI cryogenic probe head. All of the experiments were performed at 300 K. Automatic tuning, matching, shimming and adjusting of the 90° pulse length were performed for each sample.
As mouse urine naturally contains urinary proteins, the NMR spectra were acquired using a Carr-Purcell-Meiboom-Gill (CPMG) pulse sequence with water presaturation (Bruker pulse sequence cpmgpr1d) to eliminate the strong protein background. […] For better metabolite identification, a short J-resolved experiment with presaturation (NS = 2, SW = 16 ppm, TD = 8k, number of increments = 40, SW = 78.125 Hz in the indirect dimension, and relaxation delay = 2 s) was executed for all samples. Additional two-dimensional ^1H-^1H correlation spectroscopy (COSY) and ^1H-^13C heteronuclear multiple-quantum correlation (HMQC) experiments (Bruker pulse sequences cosygpprqf and hmqcphpr) were performed for selected samples.
The acquired data were processed using Topspin 3.2 software (Bruker BioSpin, Rheinstetten, Germany). Line broadening of 0.3 Hz was applied on free induction decays (FIDs) prior to Fourier transformation. The spectra were automatically phased, baseline corrected and referenced to the signal of TSP (0.00 ppm).
The assignment of individual metabolites was achieved by comparing the proton spectra with the spectra of pure metabolites using Chenomx NMR Suite 7.6 (Chenomx Inc., Edmonton, AB, Canada), the HMDB database and previously published metabolomic data. The identification of metabolites was supported through J-resolved and COSY experiments and, if possible, confirmed using carbon chemical shifts extracted from the HMQC spectra.
For quantitation of individual metabolites, the CPMG spectra were uniformly binned in the range of 0.10–10.00 ppm to 0.01-ppm intervals using AMIX software (Bruker BioSpin, Rheinstetten, Germany). This procedure reduced the dimensionality of the data, eliminated chemical shift variations and thus simplified the reproducible automatic quantification. Regions corresponding to water (4.60–4.90 ppm) and urea (5.60–6.00 ppm) were removed prior to analysis. As the dilutions of the original urine samples differed (due to the differences in water intake during urine collection), all of the spectra were normalized to the total spectral area (TSA). For each identified metabolite, one representative signal was chosen and then quantified as the sum of appropriate adjacent 0.01-ppm bins to cover the whole signal width. The metabolite concentration was expressed as the TSA-normalized intensity of the respective signal. For selection of an appropriate statistical method (parametric or non-parametric) the Lilliefors test of normality was performed. […] Metabolite alterations with a P < 0.05 were considered statistically significant. Statistical analysis was performed using Matlab software (“MATLAB version 8.6 (R2015b). Natick, Massachusetts: The MathWorks Inc., 2015.,” n.d.). […]

CCCCCCCCCCCCCCCC(=O)N[C@@H](CCC(=O)NCCCC[C@H](NC(=O)[C@@H](NC(=O)[C@H](CCC(=O)O)NC(=O)[C@H](CCSC)NC(=O)[C@H](CO)NC(=O)[C@H](Cc1c[nH]cn1)NC(=O)[C@H](CCCNC(=N)N)NC(=O)[C@H](Cc1c[nH]cn1)NC(=O)[C@@H](NC(=O)[C@H](CCCNC(=N)N)NC(=O)[C@@H](N)CO)[C@@H](C)O)[C@@H](C)CC)C(=O)N[C@H](C(=O)N1CCC[C@H]1C(=O)N[C@@H](CC(=O)O)C(=O)N[C@H](C(=O)N[C@@H](CC(N)=O)C(=O)N1CCC[C@H]1C(=O)N[C@@H](C)C(=O)N[C@@H](Cc1c[nH]c2ccccc12)C(=O)N[C@@H](Cc1ccc(O)cc1)C(=O)N[C@@H](C)C(=O)N[C@@H](CO)C(=O)N[C@@H](CCCNC(=N)N)C(=O)NCC(=O)N[C@H](C(=O)N[C@@H](CCCNC(=N)N)C(=O)N1CCC[C@H]1C(=O)N[C@H](C(=O)NCC(=O)N[C@@H](CCCNC(=N)N)C(=O)N[C@@H](Cc1ccccc1)C(N)=O)C(C)C)[C@@H](C)CC)[C@@H](C)CC)[C@@H](C)O)C(=O)O [analog 1] (H-SRTHRHSMEIK([γGlu-Palmitoyl])TPDINPAWYASRGIRPVGRF-NH2; N-terminus assumed)
2-OG (2.45 ppm), Saline/analog1 % (change of group mean vs saline): 0.026%
2-OG (3.01 ppm), Saline/analog1 % (change of group mean vs saline): -0.000867%
2-PY (8.33 ppm), Saline/analog1 % (change of group mean vs saline): -0.107%
3-indoxylsulfate (7.51 ppm), Saline/analog1 % (change of group mean vs saline): 0.024%
3-indoxylsulfate (7.71 ppm), Saline/analog1 % (change of group mean vs saline): 0.023%
4-PY (7.97 ppm), Saline/analog1 % (change of group mean vs saline): -0.088%
4-PY (8.55 ppm), Saline/analog1 % (change of group mean vs saline): -0.153%
DMA, Saline/analog1 % (change of group mean vs saline): 0.019%
MNA-Nox (8.75 ppm), Saline/analog1 % (change of group mean vs saline): -0.117%
N-carbamoylalanine (2.38 ppm), Saline/analog1 % (change of group mean vs saline): 0.020%
N-carbamoylalanine (3.31 ppm), Saline/analog1 % (change of group mean vs saline): -0.071%
N-isovalerylglycine + oxovalerate (0.92 ppm), Saline/analog1 % (change of group mean vs saline): 0.093%
TMA, Saline/analog1 % (change of group mean vs saline): -0.084%
acetate, Saline/analog1 % (change of group mean vs saline): 0.161%
allantoin, Saline/analog1 % (change of group mean vs saline): 0.042%
carnitine, Saline/analog1 % (change of group mean vs saline): 0.063%
choline, Saline/analog1 % (change of group mean vs saline): 0.027%
cis-aconitate, Saline/analog1 % (change of group mean vs saline): -0.010%
citrate (2.55 ppm), Saline/analog1 % (change of group mean vs saline): -0.078%
citrate (2.69 ppm), Saline/analog1 % (change of group mean vs saline): -0.081%
creatine+creatinine, Saline/analog1 % (change of group mean vs saline): 0.078%
creatine, Saline/analog1 % (change of group mean vs saline): -0.018%
creatinine, Saline/analog1 % (change of group mean vs saline): 0.087%
ethanolamine, Saline/analog1 % (change of group mean vs saline): -0.040%
formate, Saline/analog1 % (change of group mean vs saline): 0.026%
fumarate, Saline/analog1 % (change of group mean vs saline): -0.176%
galactose, Saline/analog1 % (change of group mean vs saline): -0.073%
glucose, Saline/analog1 % (change of group mean vs saline): -0.101%
glycine, Saline/analog1 % (change of group mean vs saline): -0.064%
hexanoylglycine + acids (0.88 ppm), Saline/analog1 % (change of group mean vs saline): 0.195%
hippurate (7.55 ppm), Saline/analog1 % (change of group mean vs saline): -0.067%
hippurate (7.64 ppm), Saline/analog1 % (change of group mean vs saline): -0.069%
hippurate (7.84 ppm), Saline/analog1 % (change of group mean vs saline): -0.067%
lactate, Saline/analog1 % (change of group mean vs saline): 0.188%
multiplet acids (1.6 ppm), Saline/analog1 % (change of group mean vs saline): 0.198%
putrescin, Saline/analog1 % (change of group mean vs saline): 0.025%
succinate, Saline/analog1 % (change of group mean vs saline): 0.118%
taurine (3.27 ppm), Saline/analog1 % (change of group mean vs saline): -0.289%
taurine (3.43 ppm), Saline/analog1 % (change of group mean vs saline): -0.352%
trigonelline (8.84 ppm), Saline/analog1 % (change of group mean vs saline): -0.128%
trigonelline (9.13 ppm), Saline/analog1 % (change of group mean vs saline): -0.163%
vinylacetylglycine, Saline/analog1 % (change of group mean vs saline): 0.197%
2-OG (2.45 ppm), Mean (group mean): 12.062
2-OG (3.01 ppm), Mean (group mean): 10.231
2-PY (8.33 ppm), Mean (group mean): 1.038
3-indoxylsulfate (7.51 ppm), Mean (group mean): 1.334
3-indoxylsulfate (7.71 ppm), Mean (group mean): 0.788
4-PY (7.97 ppm), Mean (group mean): 1.650
4-PY (8.55 ppm), Mean (group mean): 0.491
DMA, Mean (group mean): 5.115
DMG, Mean (group mean): 1.908
MA, Mean (group mean): 2.952
MNA (8.90 ppm), Mean (group mean): 0.369
MNA (8.97 ppm), Mean (group mean): 0.353
MNA (9.265 ppm), Mean (group mean): 0.370
MNA-Nox (7.75 ppm), Mean (group mean): 0.962
MNA-Nox (8.13 ppm), Mean (group mean): 0.690
MNA-Nox (8.49 ppm), Mean (group mean): 0.452
MNA-Nox (8.75 ppm), Mean (group mean): 0.431
N-carbamoylalanine (2.38 ppm), Mean (group mean): 10.982
N-carbamoylalanine (3.31 ppm), Mean (group mean): 8.810
N-isovalerylglycine + oxovalerate (0.92 ppm), Mean (group mean): 15.843
TMA, Mean (group mean): 11.127
acetate, Mean (group mean): 4.363
allantoin, Mean (group mean): 21.031
carnitine, Mean (group mean): 6.328
choline, Mean (group mean): 2.023
cis-aconitate, Mean (group mean): 8.788
citrate (2.55 ppm), Mean (group mean): 30.039
citrate (2.69 ppm), Mean (group mean): 27.401
creatine+creatinine, Mean (group mean): 24.594
creatine, Mean (group mean): 6.851
creatinine, Mean (group mean): 12.065
ethanolamine, Mean (group mean): 7.631
formate, Mean (group mean): 0.204
fumarate, Mean (group mean): 0.145
galactose, Mean (group mean): 0.718
glucose, Mean (group mean): 3.260
glycine, Mean (group mean): 5.697
hexanoylglycine + acids (0.88 ppm), Mean (group mean): 15.760
hippurate (7.55 ppm), Mean (group mean): 4.327
hippurate (7.64 ppm), Mean (group mean): 2.207
hippurate (7.84 ppm), Mean (group mean): 4.594
lactate, Mean (group mean): 7.323
multiplet acids (1.6 ppm), Mean (group mean): 12.799
putrescin, Mean (group mean): 9.134
succinate, Mean (group mean): 12.041
taurine (3.27 ppm), Mean (group mean): 18.310
taurine (3.43 ppm), Mean (group mean): 14.649
trigonelline (8.84 ppm), Mean (group mean): 0.272
trigonelline (9.13 ppm), Mean (group mean): 0.107
vinylacetylglycine, Mean (group mean): 3.595
